Reference: ChEMBL document CHEMBL1649576, “Emergence of extended-spectrum beta-lactamase PER-1 in Proteus vulgaris and Providencia stuartii isolates from Algiers, Algeria” (2009)
Values after ≈ are worked out from the molar mass of the structure shown.

Columns and labels:
Type in all cases: functional
Providencia stuartii [1] = test: Antimicrobial activity against Providencia stuartii Ps5 expressing beta-lactamase PER-1 by Etest
Escherichia coli [2] = test: Antimicrobial activity against rifampin-resistant Escherichia coli J53 transconjugated with Proteus vulgaris Pv9 expressing beta-lactamase PER-1 by […]
Proteus vulgaris [3] = test: Antimicrobial activity against Proteus vulgaris Pv9 expressing beta-lactamase PER-1 by Etest
Escherichia coli [4] = test: Antimicrobial activity against rifampin-resistant Escherichia coli J53 transconjugated with Proteus vulgaris Pv8 expressing beta-lactamase PER-1 by Etest
Escherichia coli [5] = test: Antimicrobial activity against rifampin-resistant Escherichia coli J53 transconjugated with Proteus vulgaris Pv5 expressing beta-lactamase PER-1 by Etest
Providencia stuartii [6] = test: Antimicrobial activity against Providencia stuartii Ps5 expressing beta-lactamase PER-1 by […]
Proteus vulgaris [7] = test: Antimicrobial activity against Proteus vulgaris Pv9 expressing beta-lactamase PER-1 by […]
Proteus vulgaris [8] = test: Antimicrobial activity against Proteus vulgaris Pv5 expressing beta-lactamase PER-1 by […]
Escherichia coli [9] = test: Antimicrobial activity against rifampin-resistant Escherichia coli J53 transconjugated with Proteus vulgaris Pv8 expressing beta-lactamase PER-1 by […]
Escherichia coli [10] = test: Antimicrobial activity against rifampin-resistant Escherichia coli J53 transconjugated with Proteus vulgaris Pv9 expressing beta-lactamase PER-1 by Etest
Proteus vulgaris [11] = test: Antimicrobial activity against Proteus vulgaris Pv7 expressing beta-lactamase PER-1 by […]
Escherichia coli [12] = test: Antimicrobial activity against rifampin-resistant Escherichia coli J53 transconjugated with Proteus vulgaris Pv5 expressing beta-lactamase PER-1 by […]
Proteus vulgaris [13] = test: Antimicrobial activity against Proteus vulgaris Pv5 expressing beta-lactamase PER-1 by Etest
Proteus vulgaris [14] = test: Antimicrobial activity against Proteus vulgaris Pv8 expressing beta-lactamase PER-1 by Etest
Proteus vulgaris [15] = test: Antimicrobial activity against Proteus vulgaris Pv7 expressing beta-lactamase PER-1 by Etest
Proteus vulgaris [16] = test: Antimicrobial activity against Proteus vulgaris Pv8 expressing beta-lactamase PER-1 by […]
Escherichia coli [17] = test: Antimicrobial activity against rifampin-resistant Escherichia coli J53 transconjugated with Proteus vulgaris Pv7 expressing beta-lactamase PER-1 by […]
Escherichia coli [18] = test: Antimicrobial activity against rifampin-resistant Escherichia coli J53 transconjugated with Providencia stuartii Ps5 expressing beta-lactamase PER-1 by […]
Escherichia coli [19] = test: Antimicrobial activity against rifampin-resistant Escherichia coli J53 transconjugated with Proteus vulgaris Pv7 expressing beta-lactamase PER-1 by Etest
Escherichia coli [20] = test: Antimicrobial activity against rifampin-resistant Escherichia coli J53 transconjugated with Providencia stuartii Ps5 expressing beta-lactamase PER-1 by Etest

SMILES | MIC (Providencia stuartii [1]) | MIC (Escherichia coli [2]) | MIC (Proteus vulgaris [3]) | MIC (Escherichia coli [4]) | MIC (Escherichia coli [5]) | MIC (Providencia stuartii [6]) | MIC (Proteus vulgaris [7]) | MIC (Proteus vulgaris [8]) | MIC (Escherichia coli [9]) | MIC (Escherichia coli [10]) | MIC (Proteus vulgaris [11]) | MIC (Escherichia coli [12]) | MIC (Proteus vulgaris [13]) | MIC (Proteus vulgaris [14]) | MIC (Proteus vulgaris [15]) | MIC (Proteus vulgaris [16]) | MIC (Escherichia coli [17]) | MIC (Escherichia coli [18]) | MIC (Escherichia coli [19]) | MIC (Escherichia coli [20])
CO/N=C(\C(=O)N[C@@H]1C(=O)N2C(C(=O)[O-])=C(C[N+]3(C)CCCC3)CS[C@H]12)c1csc(N)n1 [CEFEPIME] | 8 µg/mL (≈ 16.6 µM) | 8 µg/mL (≈ 16.6 µM) | 8 µg/mL (≈ 16.6 µM) | 8 µg/mL (≈ 16.6 µM) | 16 µg/mL (≈ 33.3 µM) | 8 µg/mL (≈ 16.6 µM) | 8 µg/mL (≈ 16.6 µM) | 32 µg/mL (≈ 66.6 µM) | 8 µg/mL (≈ 16.6 µM) | 8 µg/mL (≈ 16.6 µM) | 16 µg/mL (≈ 33.3 µM) | 16 µg/mL (≈ 33.3 µM) | 32 µg/mL (≈ 66.6 µM) | 32 µg/mL (≈ 66.6 µM) | 16 µg/mL (≈ 33.3 µM) | 32 µg/mL (≈ 66.6 µM) | – | – | – | –
CO/N=C(\C(=O)N[C@@H]1C(=O)N2C(C(=O)O)=C(COC(C)=O)CS[C@H]12)c1csc(N)n1 [CEFOTAXIME] | 32 µg/mL (≈ 70.3 µM) | 32 µg/mL (≈ 70.3 µM) | 32 µg/mL (≈ 70.3 µM) | 16 µg/mL (≈ 35.1 µM) | 32 µg/mL (≈ 70.3 µM) | 32 µg/mL (≈ 70.3 µM) | 32 µg/mL (≈ 70.3 µM) | 32 µg/mL (≈ 70.3 µM) | 16 µg/mL (≈ 35.1 µM) | 32 µg/mL (≈ 70.3 µM) | 32 µg/mL (≈ 70.3 µM) | 32 µg/mL (≈ 70.3 µM) | 32 µg/mL (≈ 70.3 µM) | 32 µg/mL (≈ 70.3 µM) | 32 µg/mL (≈ 70.3 µM) | 32 µg/mL (≈ 70.3 µM) | 32 µg/mL (≈ 70.3 µM) | 32 µg/mL (≈ 70.3 µM) | 31 µg/mL (≈ 68.1 µM) | 32 µg/mL (≈ 70.3 µM)
CC(C)(O/N=C(\C(=O)N[C@@H]1C(=O)N2C(C(=O)[O-])=C(C[n+]3ccccc3)CS[C@H]12)c1csc(N)n1)C(=O)O [CEFTAZIDIME] | > 256 µg/mL | > 256 µg/mL | > 256 µg/mL | > 256 µg/mL | > 256 µg/mL | > 256 µg/mL | > 256 µg/mL | > 256 µg/mL | > 256 µg/mL | > 256 µg/mL | > 256 µg/mL | > 256 µg/mL | > 256 µg/mL | > 256 µg/mL | > 256 µg/mL | > 256 µg/mL | > 256 µg/mL | > 256 µg/mL | > 256 µg/mL | > 256 µg/mL
C[C@@H](O)[C@H]1C(=O)N2C(C(=O)O)=C(SCCNC=N)C[C@H]12 [IMIPENEM ANHYDROUS] | 2 µg/mL (≈ 6.68 µM) | 0.25 µg/mL (≈ 0.835 µM) | 1 µg/mL (≈ 3.34 µM) | 0.125 µg/mL (≈ 0.418 µM) | 0.25 µg/mL (≈ 0.835 µM) | 2 µg/mL (≈ 6.68 µM) | 1 µg/mL (≈ 3.34 µM) | 1 µg/mL (≈ 3.34 µM) | 0.125 µg/mL (≈ 0.418 µM) | 0.25 µg/mL (≈ 0.835 µM) | 1 µg/mL (≈ 3.34 µM) | 0.25 µg/mL (≈ 0.835 µM) | 1 µg/mL (≈ 3.34 µM) | 1 µg/mL (≈ 3.34 µM) | 1 µg/mL (≈ 3.34 µM) | 1 µg/mL (≈ 3.34 µM) | 0.125 µg/mL (≈ 0.418 µM) | 0.125 µg/mL (≈ 0.418 µM) | 0.125 µg/mL (≈ 0.418 µM) | 0.125 µg/mL (≈ 0.418 µM)
CCN1CCN(C(=O)N[C@@H](C(=O)N[C@@H]2C(=O)N3[C@@H]2SC(C)(C)[C@@H]3C(=O)O)c2ccccc2)C(=O)C1=O [PIPERACILLIN] | 32 µg/mL (≈ 61.8 µM) | 32 µg/mL (≈ 61.8 µM) | 32 µg/mL (≈ 61.8 µM) | 16 µg/mL (≈ 30.9 µM) | 16 µg/mL (≈ 30.9 µM) | 32 µg/mL (≈ 61.8 µM) | 32 µg/mL (≈ 61.8 µM) | 16 µg/mL (≈ 30.9 µM) | 16 µg/mL (≈ 30.9 µM) | 32 µg/mL (≈ 61.8 µM) | 32 µg/mL (≈ 61.8 µM) | 16 µg/mL (≈ 30.9 µM) | 16 µg/mL (≈ 30.9 µM) | 16 µg/mL (≈ 30.9 µM) | 32 µg/mL (≈ 61.8 µM) | 16 µg/mL (≈ 30.9 µM) | 32 µg/mL (≈ 61.8 µM) | 32 µg/mL (≈ 61.8 µM) | 32 µg/mL (≈ 61.8 µM) | 32 µg/mL (≈ 61.8 µM)
